Assay results reported in patent publication EP4653448A1, “COMPOUND FOR RNA CAPPING AND USE THEREOF” (Guangzhou Henovcom Bioscience Co. Ltd., priority 2023, dated 2024).

Key:
T7 RNA Polymerase = T7 RNA Polymerase (Escherichia phage T7, UniProt P00573); test: Detection of the efficiency of mRNA capping synthesis (in vitro transcription, product yield); type: biochemical; details: 20 µL mRNA synthesis reaction system
Protocol: • 1) The plasmids were linearized and the DNA templates were purified. • 2) The mRNA was synthesized by in vitro transcription, using the capping structure prepared in the present disclosure, positive control CleanCap®AG (3'OMe) (Trilink, N-7413), negative control (uncapped mRNA) and blank control (DNase/RNase-Free water), respectively. Reaction system
The reaction was carried out at 37°C for 2 to 3 h. TURBO DNase digestion was carried out for 15 min. The mRNA was precipitated by LiCl for 30 min or more or overnight, and the mRNA precipitate was washed with 75% ethanol, dried briefly to evaporate the ethanol, and the mRNA was redissolved with RNase-Free water.
In the reaction system listed in Table 1, since the solubility of different test compounds varies in different solutions, adjustments can be made as needed. For ease of operation, the commonly used concentrations are 10 mM and 100 mM. […] If the initial concentration of the test compound is 10 mM, the dosage is 8 µL. Regardless of the initial concentration, the dosages of different test compounds were the same, and the final concentrations were also the same.
For example, when testing compounds S17 and S19, their initial concentration was 10 mM, and the addition volume was 8 µL. When testing compounds 5 and 6, their initial concentration was 100 mM, and the addition volume was 0.8 µL.
The assay was performed according to the method described in Example 20.

HEK293T cells = test: Expression efficiency of capped luciferase mRNAs in HEK293T cells; type: cell-based; details: 6 h after transfection of capped luciferase mRNA
Protocol: • 1) HNE293T cells were cultured in DMEM medium containing 10% FBS and penicillin/streptomycin at 37°C and 5% CO2. • 2) The cultured HEK293T cells were spread in a 96-well plate with 1.25 × 10^4 cells per well. • 3) After the cells completely adhered to the wall, 0.5 µg of a mixture of mRNA sample and Polyplus jet[…] was added to each well of cells, and cultured at 37°C and 5% CO2 for 6 h. • 4) The growth medium was removed from the cells to be tested and the cells were rinsed with PBS. After centrifugation to remove PBS, 50 µL of 1x lysis buffer was added thereto, and cells and all liquid were transferred to a microcentrifuge tube, and then centrifuged at 12000 x g at 4°C for 2 min. • 5) The supernatant was transferred to a new tube. Fluorescence readings were detected using the ONE-Glo Luciferase Assay System Kit.
All test compounds, N-7413, negative control and blank control were tested under the same conditions, and some experimental results in the test results are shown in Table 3. Table 3. Relative fluorescence readings for capped mRNAs
The assay was performed according to the method described in Example 21. All test compounds, N-7413, negative control and blank control were tested under the same conditions, and some experimental results in the test results are shown in Table 5. Table 5 Relative fluorescence readings for capped mRNAs

[1] = target: streptavidin-coated magnetic beads (Streptomyces avidinii, UniProt P22629); test: Biotin affinity assay (capture of capped mRNA on streptavidin beads and elution); type: binding; details: capped mRNA bound to streptavidin beads, eluted at 80°C
Protocol: • 1) S1-30nt-mRNA (mRNA capped with compound S1, with a length of 30 nt) was prepared and purified by LiCl; • 2) 500 µL of streptavidin-coated magnetic beads (2 mg) were taken, and the test tube was placed on a magnetic stand to collect the magnetic beads. The supernatant was removed and discarded, and the magnetic beads were washed; • 3) The magnetic beads were resuspended in 600 µL of TES buffer, and 5.5 µg of S1-30nt-mRNA from 1) was added to the magnetic bead resuspension and mixed well; the mixture was incubated at room temperature for one hour on a shaker or vortex mixer; • 4) The sample was placed on the magnetic stand for 5 min, and after the solution became clear, the supernatant was removed; • 5) While keeping the sample on the magnetic stand, the magnetic beads were rinsed three times with TES buffer; • 6) While keeping the sample on the magnetic stand, the magnetic beads were rinsed three times with distilled water; • 7) The deionized water was removed from the beads, and 60 µL of elution buffer heated to 80°C was added and mixed well. The mixture was heated to 80°C for 3 min in a constant-temperature metal bath, then placed on the magnetic stand for 3 min. The supernatant was aspirated as the elution product. • 8) Experimental results

[2] = test compound 4 mM, 37°C 2 to 3 h (Table 2)
[3] = 0.5 µg per well, reading of N-7413 = 1 (Table 3)

streptavidin-coated magnetic beads, sequence (P22629 25-183): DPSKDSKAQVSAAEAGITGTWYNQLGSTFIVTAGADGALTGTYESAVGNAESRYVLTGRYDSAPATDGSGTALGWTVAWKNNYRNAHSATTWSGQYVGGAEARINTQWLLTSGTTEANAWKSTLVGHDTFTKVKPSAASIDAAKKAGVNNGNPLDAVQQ
T7 RNA Polymerase, sequence (P00573 whole entry): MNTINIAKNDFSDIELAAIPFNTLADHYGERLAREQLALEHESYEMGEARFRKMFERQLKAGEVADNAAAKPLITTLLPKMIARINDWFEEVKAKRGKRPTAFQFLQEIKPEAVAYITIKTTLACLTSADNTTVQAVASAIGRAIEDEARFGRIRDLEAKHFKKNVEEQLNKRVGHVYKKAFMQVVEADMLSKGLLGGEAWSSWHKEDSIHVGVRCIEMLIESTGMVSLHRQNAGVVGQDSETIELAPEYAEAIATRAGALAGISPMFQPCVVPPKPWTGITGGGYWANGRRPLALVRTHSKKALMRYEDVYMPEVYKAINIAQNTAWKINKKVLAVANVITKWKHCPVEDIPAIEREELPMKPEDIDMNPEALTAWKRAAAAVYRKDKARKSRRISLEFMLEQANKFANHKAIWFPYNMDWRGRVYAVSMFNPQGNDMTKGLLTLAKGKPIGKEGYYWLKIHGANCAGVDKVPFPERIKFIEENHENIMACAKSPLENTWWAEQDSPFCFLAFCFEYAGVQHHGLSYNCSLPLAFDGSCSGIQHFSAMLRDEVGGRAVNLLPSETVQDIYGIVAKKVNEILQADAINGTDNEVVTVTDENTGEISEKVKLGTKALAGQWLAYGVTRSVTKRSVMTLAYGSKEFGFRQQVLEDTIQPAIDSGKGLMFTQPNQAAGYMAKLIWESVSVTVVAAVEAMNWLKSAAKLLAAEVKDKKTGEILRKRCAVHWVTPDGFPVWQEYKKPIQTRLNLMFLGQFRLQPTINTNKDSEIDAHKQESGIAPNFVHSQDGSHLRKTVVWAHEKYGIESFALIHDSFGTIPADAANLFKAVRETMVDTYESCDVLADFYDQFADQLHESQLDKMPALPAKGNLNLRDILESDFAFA

## CO[C@@H]1[C@H](OP(=O)([O-])OC[C@H]2O[C@@H](n3cnc4c(=O)[nH]c(N)nc43)[C@H](O)[C@@H]2O)[C@@H](COP(=O)(O)OP(=O)(O)OP(=O)(O)OC[C@H]2O[C@@H](n3c[n+](C)c4c(=O)[nH]c(N)nc43)[C@H](O)[C@@H]2OC)O[C@H]1n1cnc2c(N)ncnc21 [Compound N-7413, reference compound]
T7 RNA Polymerase; method of Example 20 (Table 4)
  Final product mass: 122 µg
T7 RNA Polymerase; [2]
  Final product mass: 122 µg
HEK293T cells; [3]
  Relative fluorescence reading: 1.00
HEK293T cells; reading of N-7413 = 1 (Table 5)
  Relative fluorescence reading: 1.00

## CO[C@@H]1[C@H](OP(=O)(O)OC[C@H]2O[C@@H](n3cnc4c(=O)[nH]c(N)nc43)[C@H](O)[C@@H]2O)[C@@H](COP(=O)(O)OP(=O)(O)OP(=O)([O-])OC[C@H]2O[C@@H](n3c[n+](C)c4c(=O)[nH]c(N)nc43)[C@H](O)[C@@H]2CNC(=O)CCCC[C@@H]2SC[C@@H]3NC(=O)N[C@@H]32)O[C@H]1n1cnc2c(N)ncnc21 [Compound S1]
T7 RNA Polymerase; [2]
  Final product mass: 139 µg
HEK293T cells; [3]
  Relative fluorescence reading: 2.41

## CO[C@@H]1[C@H](OP(=O)(O)OC[C@H]2O[C@@H](n3cnc4c(=O)[nH]c(N)nc43)[C@H](O)[C@@H]2O)[C@@H](COP(=O)(O)OP(=O)(O)OP(=O)([O-])OC[C@H]2O[C@@H](n3c[n+](C)c4c(=O)[nH]c(N)nc43)[C@H](O)[C@@H]2CNC(=O)CCCCCNC(=O)CCCC[C@@H]2SC[C@@H]3NC(=O)N[C@@H]32)O[C@H]1n1cnc2c(N)ncnc21 [Compound S3]
T7 RNA Polymerase; [2]
  Final product mass: 137 µg
HEK293T cells; [3]
  Relative fluorescence reading: 2.56
[1]
  recovery rate: above 95%

## CO[C@@H]1[C@H](OP(=O)([O-])OC[C@H]2O[C@@H](n3cnc4c(=O)[nH]c(N)nc43)[C@H](O)[C@@H]2O)[C@@H](COP(=O)(O)OP(=O)(O)OP(=O)(O)OC[C@H]2O[C@@H](n3c[n+](C)c4c(=O)[nH]c(N)nc43)[C@H](O)[C@@H]2Cn2cc(CNC(=O)CCCC[C@@H]3SC[C@@H]4NC(=O)N[C@@H]43)nn2)O[C@H]1n1cnc2c(N)ncnc21 [Compound S41]
T7 RNA Polymerase; [2]
  Final product mass: 126 µg
HEK293T cells; [3]
  Relative fluorescence reading: 1.81
[1]
  recovery rate: above 95%

## CNc1ccccc1C(=O)NC[C@H]1[C@@H](O)[C@H](n2c[n+](C)c3c(=O)[nH]c(N)nc32)O[C@@H]1COP(=O)([O-])OP(=O)(O)OP(=O)(O)OC[C@H]1O[C@@H](n2cnc3c(N)ncnc32)[C@H](OC)[C@@H]1OP(=O)(O)OC[C@H]1O[C@@H](n2cnc3c(=O)[nH]c(N)nc32)[C@H](O)[C@@H]1O [Compound S165]
T7 RNA Polymerase; [2]
  Final product mass: 88 µg
HEK293T cells; [3]
  Relative fluorescence reading: 0.34

## CNc1ccccc1C(=O)NCCCCCC(=O)NC[C@H]1[C@@H](O)[C@H](n2c[n+](C)c3c(=O)[nH]c(N)nc32)O[C@@H]1COP(=O)([O-])OP(=O)(O)OP(=O)(O)OC[C@H]1O[C@@H](n2cnc3c(N)ncnc32)[C@H](OC)[C@@H]1OP(=O)(O)OC[C@H]1O[C@@H](n2cnc3c(=O)[nH]c(N)nc32)[C@H](O)[C@@H]1O [Compound S166]
T7 RNA Polymerase; [2]
  Final product mass: 91 µg
HEK293T cells; [3]
  Relative fluorescence reading: 0.87

## CO[C@@H]1[C@H](OP(=O)([O-])OC[C@H]2O[C@@H](n3cnc4c(=O)[nH]c(N)nc43)[C@H](O)[C@@H]2O)[C@@H](COP(=O)(O)OP(=O)(O)OP(=O)(O)OC[C@H]2O[C@@H](n3c[n+](C)c4c(=O)[nH]c(N)nc43)[C@H](O)[C@@H]2NC(=O)CCCC[C@@H]2SC[C@@H]3NC(=O)N[C@@H]32)O[C@H]1n1cnc2c(N)ncnc21 [Compound S169]
T7 RNA Polymerase; [2]
  Final product mass: 131 µg
HEK293T cells; [3]
  Relative fluorescence reading: 1.35
[1]
  recovery rate: above 95%

## CO[C@@H]1[C@H](OP(=O)([O-])OC[C@H]2O[C@@H](n3cnc4c(=O)[nH]c(N)nc43)[C@H](O)[C@@H]2O)[C@@H](COP(=O)(O)OP(=O)(O)OP(=O)(O)OC[C@H]2O[C@@H](n3c[n+](C)c4c(=O)[nH]c(N)nc43)[C@H](O)[C@@H]2CC(=O)NCCNC(=O)CCCC[C@@H]2SC[C@@H]3NC(=O)N[C@@H]32)O[C@H]1n1cnc2c(N)ncnc21 [Compound S170]
T7 RNA Polymerase; [2]
  Final product mass: 96 µg
HEK293T cells; [3]
  Relative fluorescence reading: 1.47
[1]
  recovery rate: above 95%
